Measured values taken from patent US20240174637A1, “DEGRADERS OF GRK2 AND USES THEREOF” (Sonata Therapeutics, Inc., priority 2021, published 2024).

System: PAXF1657 KO Clone #4
Test: 7-day cellular proliferation assay (CellTiter-Glo), PAXF1657 KO Clone #4
Assay type: cell-based
Conditions: 168 h, 7-day, read-out: 7-day proliferation assay: IC50 GeoMean (uM) [Cell Line: PAXF1657 KO Clone #4]
Summary of the method: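 Seven-day growth in PAXF1657 lines engineered for GRK2 overexpression or knockout, measured by CellTiter-Glo; compounds tested at 30 μM-0.0002 μM final and replenished once at day 3.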

Row | Structure (SMILES) | IC50
1 | Cc1ncsc1-c1ccc(CNC(=O)[C@@H]2C[C@@H](O)CN2C(=O)[C@@H](NC(=O)COCCOCCCCCCOc2cccc(CNC(=O)c3cccc(NCc4nnc(-c5ccncn5)n4C)c3)c2)C(C)(C)C)cc1 [Compound D101] | 1 to 10 µM
2 | Cc1ncsc1-c1ccc(CNC(=O)[C@@H]2C[C@@H](O)CN2C(=O)[C@@H](NC(=O)COCCOCCOCCOCCOCCOCCCCCCOc2cccc(CNC(=O)c3cccc(NCc4nnc(-c5ccncn5)n4C)c3)c2)C(C)(C)C)cc1 [Compound D100] | > 10 µM
